Patent US8715947B2, “Inhibition of the interaction between 5T4 oncofoetal glycoproteins and CXC chemokine receptors as a method of identifying chemotaxis inhibitors” (Cancer Research Technology Limited, priority 2009, dated 2014)
Entries after “also recorded” stand apart in the source; their conditions may differ.

How the values were obtained:
[1] = system: WT-ES cells; test: CXCL12 chemotaxis of WT-ES cells in transwell chambers; type: cell-based, mouse
Experimental: (§1) Chemotaxis was assessed using transwell chambers as previously described for cellular motility assays [16; the contents of which are expressly incorporated herein in their entirety] in the presence or absence of the chemokine CXCL12 (R&D systems), at a concentration of 10 ng/well for ES cell experiments, and 30 ng/well for all others. Inhibition studies were performed in the presence of 10 μM Diprotin A (Sigma) for CD26, 10 μM AMD3100 (Sigma) for CXCR4 or 10 μg/well mouse anti-CXCL12 (R&D systems) or Pertussis Toxin (Sigma, 10 ng/ml). For m5T4 specific mAb inhibition of chemotaxis or control Ig; antibodies were premixed with 50,000 differentiating WT-ES or MEF cells/ml and added to the transwell chambers as above. CXCL16 (R&D 10 ng/ml), the ligand for CXCR6 and CXCL10 (R&D 100 ng/ml), a ligand for CXCR3 were used to assess chemotaxis in undifferentiated and/or differentiating WT and 5T4KO ES cells.

[2] = system: ERK phosphorylation; test: ERK phosphorylation in MEFs by Western blot; type: cell-based, mouse; conditions: 50 μM PD98059, 50 μM LY294002 or 10 μM AMD3100; for increase in ERK phosphorylation in response to CXCL12 stimulation: WT MEFs; for increase in ERK1/2 phosphorylation in response to PMA stimulation: WT and 5T4KO MEFs
Experimental: Western blots were carried out using a BioRad Mini-PROTEAN Tetra (Thermo Fisher) supplemented with protease and phosphatase inhibitor cocktails (Thermo Fisher). RIPA buffer (50 mM Tris-Cl pH 7.4, 150 mM NaCl, 1% NP40, 0.25% Na-deoxycholate, 1 mM PMSF and protease and phosphatase inhibitor cocktail) was used as an alternative method of cell lysis. […] Other primary antibodies used were ERK1/2, phospho-ERK1/2 (Thr202/Tyr204/Thr185/Tyr187), AKT and phospho-AKT (Thr308) (Cell Signalling Technology) at 1:1000. Following secondary antibody labelling using appropriate HRP conjugates (AbSerotec) hybridizing bands were detected using SuperSignal West Dura (Thermo Fischer). For immunoprecipitation experiments cells were lysed in M-PER (Thermo Fischer) according to manufacturer's instructions and enriched for the membrane fraction on a 45% sucrose gradient by ultracentrifugation. 100 μg of the membrane enriched fraction was incubated with 1 μg of rabbit polyclonal anti-CXCR4 (Abcam) or 1 μg of mouse anti-monoclonal h5T4 or appropriate irrelevant control antibodies for 1 hour at room temperature. A 50% slurry of Protein G beads (Amersham) was then added and incubated for 1 hour at room temperature. Beads were subsequently washed 7 times with 1 ml PBS+0.1% Triton X-100, and then resuspended in PAGE loading buffer (Thermo Fisher), boiled for 3 minutes and loaded onto 4-15% gradient gel and processed as described for Westerns above. Gels were run in Lamelli buffer (25 mM Tris-base, 192 mM glycine, 0.1% SDS). Antibodies to CXCR7 were used in western blot analysis of PAGE separated MEF cells solubilised 1%.

[3] = target: T1, CXCR4 (Mus musculus, UniProt P70658); conditions: in vivo; cited from earlier work
[4] = target: T1, CXCR4; conditions: in vivo; cited from earlier work; remark: listed apart in the source
[5] = system: primary murine embryonic fibroblasts; test: Immunofluorescence pattern of 5T4 and CXCR4 in primary murine embryonic fibroblasts after cytoskeleton, Golgi or microtubule disruption; type: cell-based, mouse; conditions: for cell surface expression and colocalisation of 5T4 and CXCR4 versus untreated controls: 985 nM cytochalasin D or 3.6 μM brefeldin A; for cell surface expression and colocalisation of 5T4 and CXCR4 after washout: one hour after washout
Experimental: Immunofluorescence In Situ. These studies were performed using methods described previously (39), with cells grown on 24 well glass bottomed plates, (Iwaki, supplied through Jencons) for ES cells the wells were pre coated with 0.1% gelatine. Primary antibodies used were rabbit anti-CXCR4, (5 μg/ml) (Abcam), rat-anti-DPIV (5 μg/ml), (R&D), mAb anti-human 5T4 (10 μg/ml,), mAb anti-m5T4, 9A7 (20 μg/ml), B3F1 (5 μg/ml), rabbit anti-CXCR7 (AbCam, 5 μg/ml), rat mAb anti-CXCR6 (R&D, 5 μg/ml), rat mAb anti-CXCR3 (R&D, 5 μg/ml), Alexa Fluor 488 mouse anti-myc tag clone 4A6 (Millipore) or appropriate isotype controls. Secondary detection was performed by incubation for 1 hour at 4° C. with species or IgG sub-class specific Alexa Fluor conjugated secondary antibodies (Invitrogen) (6 μg/ml) as appropriate for multiple antigen detection. Labelling of the endoplasmic reticulum and Golgi apparatus was performed using NBD C6-Ceramide or Endotracker, (Invitrogen, Molecular Probes) as per manufacturer's instructions. […]. F-Actin was labeled using Phaloidin-633 Alexa Fluor (Invitrogen). Microtubules were visualised by murine IgG recognizing β-tubulin (Cancer Research UK). Cells were imaged on a Zeiss Axiovert 200M with a plan-fluar ×100 1.45NA objective lens and a Roper Cascade EMCCD 512B camera. Illumination was achieved using a 300W Xenon system, (Sutter) which presented the system as an even field of illumination in addition to the appropriate neutral density and Schott filters to modulate the light source. Wavelength selection was achieved using external filter wheels, (Applied Scientific Instrumentation) and the ETSedat set, (Chroma). Data sets were captured with an axial resolution of 100 nm using the MS-2000 stage (Applied Scientific Instrumentation) and a lateral resolution of 0.1645 microns per pixel. The system was full controlled and automated via the FRAP-AI software, (MAG Biosystems/Metamorph). All of the data sets were deconvolved using Huygens (Scientific Volume Imaging) after which visualization and analysis was carried out using Imaris, (Bitplane). Colocalisation was assessed by analysis of the deconvolved images utilising ImarisColoc software (Bitplane) in manual mode. A 2D scatter plot showing intensity pairs in the image was thresholded to include only colocalized points in the three dimensional volume.
Primary murine embryonic fibroblasts were assessed for their pattern of 5T4 and CXCR4 expression by immunofluorescence following disruption of the cytoskeleton, Golgi or microtubules for 24 hours with cytochalasin D, brefeldin A or nocodazole respectively. Cytoskeleton, Golgi and microtubule disruption was determined by immunofluorescence with AlexaFluor 633 conjugated phalloidin, BODIPY labeled NBD C6 ceramide and anti-tubulin antibodies respectively. […] Clearly plasma membrane detection of co-localized 5T4/CXCR4 molecules is dependent on microtubules and the molecules are not obligatorily associated at the Golgi.

[6] = system: WT and 5T4KO ES cells; test: CXCL10 chemotaxis of ES cells; type: cell-based, mouse; conditions: 100 ng/well CXCL10
[7] = system: 5T4KO ES cells; test: CXCL12 chemotaxis of 5T4KO ES cells in transwell chambers; type: cell-based, mouse; conditions: undifferentiated or differentiating 5T4KO ES cells; 10 μM
Experimental: as §1

[8] = system: JEG-3; test: CXCL12 chemotaxis of JEG-3 choriocarcinoma cells; type: cell-based, human; conditions: 10 μM diprotin A, 30 ng/well CXCL12
Experimental: as §1

[9] = system: CAOV3; test: CXCL12 chemotaxis of CAOV3 ovarian carcinoma cells; type: cell-based, human; conditions: 10 μM diprotin A, 10 ng/well CXCL12
Experimental: as §1, with “at a concentration of 10 ng/well for ES cell experiments, and 30 ng/well for all others.” left out

[10] = system: SKOV3; test: CXCL12 chemotaxis of SKOV3 ovarian carcinoma cells; type: cell-based, human; conditions: 10 μM diprotin A, 10 ng/well CXCL12
Experimental: as §1, with “at a concentration of 10 ng/well for ES cell experiments, and 30 ng/well for all others.” left out
A series of 5T4 constructs were built for this study and cloned into pCMVα, and the retroviral vector SFβ91 [32] that we had previously inserted the cDNA cassette eGFP under the transcriptional control of an IRES (Clonetech). […] A multiplicity of 30 infectious units per cell led to 100% of cells expressing m5T4 or h5T4 or GFP at 48 hours as assessed by FACS and when other biological assessments were made. […] After 3 days, GFP positive cells were FACS sorted and assessed for 5T4 expression and chemotaxis to CXCL12.

T1 sequence (P70658 whole entry): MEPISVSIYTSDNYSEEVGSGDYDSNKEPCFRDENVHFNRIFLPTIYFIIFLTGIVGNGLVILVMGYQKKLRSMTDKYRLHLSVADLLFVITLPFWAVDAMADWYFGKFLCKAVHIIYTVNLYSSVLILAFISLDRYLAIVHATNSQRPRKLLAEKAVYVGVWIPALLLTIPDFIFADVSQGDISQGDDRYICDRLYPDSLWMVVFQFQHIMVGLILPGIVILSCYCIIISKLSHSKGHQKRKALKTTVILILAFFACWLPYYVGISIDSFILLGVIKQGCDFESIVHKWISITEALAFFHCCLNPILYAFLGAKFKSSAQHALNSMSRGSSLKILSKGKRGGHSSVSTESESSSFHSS

c1cc(CN2CCCNCCNCCCNCC2)ccc1CN1CCCNCCNCCCNCC1 [AMD3100]
chemotaxis to CXCL12 with CXCR4 inhibitor ([1]; differentiating WT-ES cells, 2 hr pre-incubation with 10 μM): blocked
chemotaxis to CXCL12 with CXCR4 inhibitor ([1]; undifferentiated WT-ES cells, 10 μM): no effect
increase in ERK phosphorylation in response to CXCL12 stimulation [2]: prevented
increase in ERK1/2 phosphorylation in response to PMA stimulation [2]: independent of both CXCR4 and PI3K activity
allergic lung inflammation and airway hyperreactivity [3]: attenuates

c1ccc(CNCc2ccc(CN3CCCNCCNCCCNCC3)cc2)nc1 [AMD3465]
pulmonary granuloma formation [4]: eliminates

COc1cccc(-c2cc(=O)c3ccccc3o2)c1N [PD98059]
increase in ERK phosphorylation in response to CXCL12 stimulation [2]: prevented
increase in ERK1/2 phosphorylation in response to PMA stimulation [2]: blocked by MEK1 inhibition

C[C@H]1CCC/C=C/[C@@H]2C[C@H](O)C[C@H]2[C@H](O)/C=C/C(=O)O1 [brefeldin A]
cell surface expression and colocalisation of 5T4 and CXCR4 versus untreated controls ([5]; 24 hours): reduced levels of cell surface expression of both antigens
cell surface expression and colocalisation of 5T4 and CXCR4 after washout [5]: returned to normal levels; also recorded: returned to levels with marked cell surface colocalisation similar to that of controls

C=C1[C@@H](C)[C@H]2[C@H](Cc3ccccc3)NC(=O)[C@]23[C@H](OC(C)=O)/C=C/[C@@](C)(O)C(=O)[C@@H](C)C/C=C/[C@H]3[C@@H]1O [cytochalasin D]
polymerized actin filaments (phalloidin immunofluorescence) ([5]; 24 hours treatment, 985 nM cytochalasin D): no polymerized actin filaments were detectable
cell surface expression and colocalisation of 5T4 and CXCR4 versus untreated controls ([5]; 24 hours): no detectable differences

CC[C@H](C)[C@H](N)C(=O)N1CCC[C@H]1C(=O)N[C@H](C(=O)O)[C@@H](C)CC [diprotin A]
chemotaxis towards CXCL10 with CD26 inhibitor ([6]; undifferentiated ES cells, 10 μM): acquire increased chemotaxis towards CXCL10
chemotactic response to CXCL12 with CD26 inhibitor [7]: did not restore chemotactic behaviour; also recorded: no change in chemotactic response
CXCL12-mediated chemotaxis with CD26 inhibitor [8]: only evident in the presence
CXCL12 chemotaxis with CD26 inhibitor [9]: further enhanced
CXCL12 chemotaxis with CD26 inhibitor [10]: further enhanced

COC(=O)Nc1nc2ccc(C(=O)c3cccs3)cc2[nH]1 [nocodazole]
cell surface detection of 5T4 ([5]; 24 hours, 332 nM nocodazole): remained detectable at the cell surface albeit at a diminished level; also recorded: still detectable at the cell surface albeit at a diminished level
cell surface detection of CXCR4 ([5]; 24 hours, 332 nM nocodazole): no cell surface detection of CXCR4
cell surface expression and colocalisation of 5T4 and CXCR4 after washout [5]: both antigens were detectable at the cell surface with marked colocalisation similar to controls

pertussis toxin
CXCL10 related chemotaxis with Gi protein inhibitor ([6]; WT and KO differentiating ES cells, 10 ng/ml): inhibits CXCL10 related chemotaxis
